Assay results reported in a melting point compilation (Tetko et al.; mined from patent text by program, amines drawn as free bases though some values may be those of a salt).

SMILES | melting point [°C]
CC1=Nc2ccccc2CC(c2ccsc2)N1C (stereo unspecified) | 113 to 117
CNc1cn(-c2cncc(F)c2)nc1C1CC1 | 118 to 120
Cc1ccccc1-n1c(-c2sc(Nc3ccccc3)nc2-c2ccccc2)nc2ccccc2c1=O | 141 to 143
CCOC(=O)c1cc2c(nc(C)n2C)c2c1C(=O)CC1(Cc3ccccc3C1)N2 | 205 to 206
O=C(O)c1ccc(OCCNC(=O)C2Cc3ccccc3N2S(=O)(=O)c2ccc(-c3cccc(C(F)(F)F)c3)cc2)c(Cl)c1 (stereo unspecified) | 135 to 140
CCNC(=O)CSc1nc(Cl)cc(Nc2cccc(C)c2C)n1 | 191 to 192
COc1cc(OC)nc(Oc2cccc(Oc3nc(OC)cc(OC)n3)c2CO)n1 | 122
CCc1ccc2c(c1)C=Cc1cc(C)ccc1C2c1cn(-c2ccnc(N(C)CC(=O)Nc3nc(CC(=O)O)cs3)n2)c(=O)[nH]c1=O (stereo unspecified) | 188
CCCCCCCCCCCCCCCCCCN1C(=O)c2ccccc2C1=O | 78 to 79
O=C(O)c1cnc2ccoc2c1 | 238 to 239
COc1cccc(C(=C/C=C/C(=O)O)c2cccc(OC)c2)c1 | 179 to 180
Cc1cc(C)c(Nc2nc(C)ccc2S(=O)(=O)c2ccc(OCCCC#N)cc2)c(C)c1 | 160 to 162
CC(C)N(CCO)C(=O)c1noc2ccccc12 | 92 to 94
CC1=C(C(=O)OC(C)C)C(c2cccc([N+](=O)[O-])c2)N(C(N)=O)C(=O)N1 (stereo unspecified) | 160 to 161
CCOC(=O)C(C(=O)OCC)c1ccc([N+](=O)[O-])cn1 | 91.5 to 93.5
CC(=O)N1CCc2ccc(C(=O)c3cccc(F)c3)cc2C1 | 136 to 139
CC(C)(C)c1ccc2c(c1)C=C(C(=O)O)CC2 | 185 to 186
Cc1ccc(C(=O)O)c(OC(=O)C=Cc2ccccc2)c1 | 156 to 157
CC(C)N(CCCC(=NNC(N)=S)c1ccccc1)C(=O)C1CCCCC1 | 112 to 114
O=C(O)c1ccc(SC(Cn2ccnc2)c2ccc(C(F)(F)F)cc2)cc1 (stereo unspecified) | 92 to 95
O=[N+]([O-])c1oc2c(CO)cccc2c1-c1ccccc1 | 128 to 130
O=C(Nc1ccc(OCCNCC2CC2)cc1)c1c[nH]c2c1C(=O)CCC2 | 234
COC(=O)C1CSC(c2cc3ccccc3n2C)=N1 (stereo unspecified) | 78 to 80
CS(=O)(=O)c1ccc(-c2[nH]c(Cl)cc2-c2ccc(F)cc2)cc1 | 206 to 208

SMILES | melting point [°C]
Cc1cc(C(O)(c2cc(C)sc2C)c2cc(C)sc2C)c(C)s1 | 110 to 111
COc1ccc(N2CCN(c3c(C)c(C)c4c(c3C)C(O)(c3ccc(-c5ccccc5)cc3)C(C)(C)O4)CC2)cc1 (stereo unspecified) | 182 to 184
C=CCOC(=O)c1ccc(NC(=O)C(=NO)c2ccc3c(c2)C(C)(C)CCC3(C)C)cc1 | 176 to 177
Cc1cc(CCC(=O)O)nc(-c2nc(=O)c3ccc(Cl)cc3s2)c1 | 232 to 233
CCc1ccc(N2CCN(c3c(C)c(C)c4c(c3C)CC(C)(C)O4)CC2)cc1 | 152 to 155
CC1CCc2ncc([N+](=O)[O-])cc2C1 (stereo unspecified) | 50 to 52
O=[N+]([O-])c1cc(Cc2cc(Cl)ccc2O)c(O)c(Cc2cc(Cl)ccc2O)c1 | 220
N#Cc1ccc2[nH]cc(C3CCC4(CC3)OCCO4)c2c1 | 153 to 155
CCN(CC)CCOc1ccc(N2C(=O)C(c3ccccc3)=C3CCCCC32)cc1 (stereo unspecified) | 81
Cc1cccc(-c2ccc(NC(=O)Nc3ccc(Oc4cc(N)ncn4)cc3)cc2C(F)(F)F)n1 | 130 to 133
CC(c1ccc(-c2ccccc2)c(F)c1)c1cc(N(C)C(=S)NC(=O)c2ccccc2)on1 (stereo unspecified) | 115 to 116
O=C(O)CCCCCCc1ccc(CCNC(=O)c2ccc(Cl)cc2)cc1 | 140 to 143
CC(C)(C)C(=O)c1c[nH]c2ncc(-c3cc(OCCS(C)(=O)=O)cc(N4CCCC4)c3)nc12 | 230 to 232
O=C(c1ccncc1)N1CCN=C1Nc1c(Cl)cccc1Cl | 82.5 to 83.5
COc1cccc2c1CCCC2CN=[N+]=[N-] (stereo unspecified) | 65 to 66
CCC1=C(C(=O)OC)C(c2cccc([N+](=O)[O-])c2)c2c(nc(N3CCOCC3)nc2N2CCOCC2)N1 (stereo unspecified) | 225
CC(CO)CCCC(C)C1CCC2C3CC=C4C(C)(C)C(O)CCC4(C)C3CCC12C (stereo unspecified) | 174 to 175
CCOC(=O)COc1cc2c(c(Cl)c1Cl)C(=O)C(CC#C[Si](C)(C)C)(c1ccccc1)C2 (stereo unspecified) | 112 to 113
C1=Cc2c(ccc3cccnc23)OC1 | 207 to 208
COc1ccc(NC(C)=O)cc1F | 120
COc1ccc(CCNc2nccc(-c3cccc(NC(=O)CCCN4C=CC=NC4)c3)n2)cc1OC | 121 to 122
O=C(N[C@@H](Cc1ccccc1)[C@@H](O)[C@H](O)[C@H](Cc1ccccc1)NC(=O)c1ccccn1)c1ccccn1 | 179 to 184
COc1ccc(CNC(=O)[C@@H](NC(=O)[C@H](NCc2ccc(OC)c(OC)c2)[C@H](O)[C@H](Cc2ccccc2)NC(=O)OC(C)(C)C)C(C)C)c(O)c1 | 144
COCCN(CCOC)c1nc2cc(-c3ccc(Cl)cc3)nnc2c2ccccc12 | 123 to 125

SMILES | melting point [°C]
O=C1CCCc2cc(-c3ccccc3)ccc21 | 99 to 100
CSc1nnc(Cc2ccccc2S(N)(=O)=O)s1 | 175 to 178
CC1SC(c2cccnc2)NC1=O (stereo unspecified) | 110
CC[C@@H](Nc1nc(NCc2cccnc2)c2ncn(C(C)C)c2n1)C(C)(C)O | 138 to 145
CC(=O)NC1C(NC(=N)N)C=C(C(=O)O)OC1C(OC(=O)NCCCO)C(O)CO (stereo unspecified) | 265 to 267
CC(=O)NC(Cc1csc2ccccc12)C(CCc1cc(C(F)(F)F)cc(C(F)(F)F)c1)=NO (stereo unspecified) | 200 to 201
CC(C)(C)c1cc(C(=O)O)c(Cl)c(C(=O)O)c1 | 250
CN1CC=C(c2cn(-c3cccnc3)c3ccc([N+](=O)[O-])cc23)CC1 | 175 to 177
COC(=O)c1cccc(-c2cnc3c(c2)N(Cc2ccccc2)C(=O)CN3)c1 | 211
CNc1nc(-c2cccc(NC(=O)c3cccc(OCc4ccccc4)c3)c2)c2cc(OC)c(OC)cc2n1 | 110 to 112
CN(C)C(=O)c1cc2ccc3c(c2cc1Cn1cncn1)C(C)(C)C(=O)O3 | 172 to 173
CNc1c(NCCNCc2ccc(CN3CCCCC3)o2)c(=O)c1=O | 145 to 147
Cc1ccc2c(c1)N(C(=O)CN(C)C)c1ccccc1S(=O)(=O)N2C | 135 to 137
CC(C(=O)c1ccc(Cl)c(Cl)c1)C(O)C(=O)O (stereo unspecified) | 103 to 104
Cc1cc(F)ccc1-c1nc(NC(C)(CO)CO)nc2c1ccc(=O)n2-c1c(F)cccc1F | 158 to 160
Fc1cc(Cl)ccc1NC(=S)C1CCCC=C1N1CCOCC1 (stereo unspecified) | 86 to 88
Cc1oc(-c2ccccc2)nc1COc1ccc2c(-c3ccccc3)c(CCl)oc2c1 | 129 to 130
OCc1cc2c(F)cccc2nc1Cl | 176
O=C1C[C@@H]2[C@@H](/C=C/C(=O)C3CCCCC3)[C@H](OC(=O)c3ccccc3)C[C@@H]2O1 | 151 to 153
CC(=O)SCCC(=O)N1N=C(c2ccccc2)CC1C(=O)O (stereo unspecified) | 137 to 139
c1ccc(-c2ncc(-c3cnc(-c4ccccc4)o3)cn2)cc1 | 228 to 231
CC1(COc2ccc([N+](=O)[O-])cc2)CC(O)c2cc(O)c(C(C)(C)C)cc2O1 (stereo unspecified) | 194 to 201
C=CC[C@@H]1[C@H](O)[C@@H](O)C(=O)N1Cc1ccccc1 (relative stereo) | 90 to 93
O=C(OSc1ccccn1)c1ccc(Cc2ccc(F)cc2)o1 | 88 to 89

SMILES | melting point [°C]
Cn1c([N+](=O)[O-])cnc1-c1cc(CCC(=O)O)on1 | 114
c1ccc2c(c1)CCONC2 | 190 to 192
COc1cc(-c2ccc(Cl)cc2)cc2oc(=O)c(C)c(C)c12 | 148
Cc1ccccc1Cc1n[nH]c2c1c(=O)n(-c1cccc(C(F)(F)F)c1)c1ncccc21 | 249 to 252
O=C(Nc1cc2ncc(CN3CCCC3)cc2cc1N1CCCC1)c1ccc(-c2ccc(F)cc2)cc1 | 182 to 184
CC(C)[C@H](C[C@H](O)[C@H](C)NC(=O)OC(C)(C)C)C(=O)NN | 55 to 62
O=c1cnc(-c2ccccc2)nn1CC(F)(F)F | 129 to 131
COc1nc(NCS(=O)(=O)c2ccc(C)cc2)nc(N(C)C)n1 | 188 to 190
Nc1nc2c(s1)CC(N1CCN(c3ccc(Br)cn3)CC1)CC2 (stereo unspecified) | 246 to 248
c1ccc(CN2CCC(CCc3noc4cc(N5CCOCC5)ccc34)CC2)cc1 | 129 to 130
CCc1c(OC)cc2c(c1O)C(=O)C[C@H]1CCN(C)C[C@@H]21 (relative stereo) | 221 to 223
CCCCN(CCCC)c1ccc(C=CC2=C(OC)C(=CC=CC3=C(C#N)C(=C(C#N)C#N)OC3(C)C(F)(F)F)CC(C)(C)C2)c(OC)c1 (stereo unspecified) | 141 to 151
CCCCCCCCCCCC#Cc1ccccc1C=C(C(=O)OCC)P(=O)(O)O | 68 to 69
NCc1ccc(Br)nc1 | 57 to 58
COc1cc([N+](=O)[O-])c([N+](=O)[O-])cc1O | 172
CCN1C(=O)C(C)(C)C(=O)N(C)c2cc(CCN(CCn3ccc4oc(C)cc4c3=O)Cc3cc(C)nn3C)ccc21 | 134 to 140
CS(=O)(=O)c1ccc(-c2sc(-c3ccccc3Cl)nc2-c2cccs2)cc1 | 171 to 174
COCCc1cc(N2CCN(C)CC2)n2nc(SC)c(S(=O)(=O)c3ccccc3)c2n1 | 160 to 161
Cc1ccc2c(c1)C1CN(CCCC#N)CCC1N2 (stereo unspecified) | 160 to 165
N#Cc1ccc(CCC(=O)c2c(O)c3cccnc3n(-c3ccccc3)c2=O)cc1 | 248 to 249
Cc1c[nH]c2ccc(C#N)cc12 | 110 to 112
CCOC(=O)[C@@H](O)[C@@H]1OC(=O)c2c(OC)cc(OC)cc21 | 154 to 156
CS(=O)c1nc(-c2ccc([N+](=O)[O-])cc2)c[nH]1 (stereo unspecified) | 220 to 222
CN(C)C1CCN(Cc2ccc3c(c2)Cc2c(-c4cccs4)n[nH]c2-3)CC1 | 96 to 98
